# Where two headings read alike, the source gives them in different places.
# How the values were obtained:
# [1] = test system: MCF7 human breast cancer cell line; assay: MTT assay of MCF7 cells; assay type: cell-based; conditions: Homo sapiens, media containing 1% fetal bovine serum
# Protocol: (§1) MDA-MB-231 and MCF7 cells were plated at a density of 8×10^3 cells/well and 10^4 cells/well in 96-well culture plates, respectively. The compounds were fed in serum free media containing 5% and 1% fetal bovine serum for MDA-MB-231 and MCF7 cells, respectively.
# [2] = test system: MDA-MB-231 human breast cancer cell line; assay: MTT assay of MDA-MB-231 cells; assay type: cell-based; conditions: Homo sapiens, media containing 5% fetal bovine serum
# Protocol: as §1
# [3] = test system: MCF 10A non-tumorigenic mammary epithelial cells; assay: MTT assay of MCF10A cells; assay type: cell-based, human; conditions: for IC50: Homo sapiens; for Selectivity index: IC50 for MCF 10A divided by IC50 for +SA cell line
# Protocol: MCF 10A (ATCC cat # CRL-10317) normal human non-tumorigenic mammary epithelial cells were maintained in serum-free defined medium consisting of Dulbecco's modified Eagle's medium (DMEM)/F12 containing 5% horse serum, 1% penicillin/streptomycin, 0.5 μg/mL hydrocortisone, 100 ng/mL cholera toxin, 10 μg/mL insulin, and 20 ng/mL epidermal growth factor (rhEGF). For subculturing, cells were rinsed twice with sterile Ca2+ and Mg2+-free phosphate buffered saline (PBS) and incubated in 0.25% trypsin containing 0.025% EDTA in PBS for 5 min at 37° C. The released cells were centrifuged, re-suspended in fresh media and counted using a hemocytometer. For testing, MCF 10A cells were plated at a density of 10×10^4 cells/well. A stock solution of the compounds was prepared in DMSO. DMSO was added to all treatment media such that the final DMSO concentration was the same in all treatment groups within a given experiment and was always less than 0.1%. The compounds were fed in serum free media. MCF10A mammary epithelial cell's viable number was determined by MTT colorimetric assay. […] IC50 values were calculated by non-linear regression using statistical software. The selectivity index indicated in the table represents the IC50 value for the MCF 10A cell line divided by the IC50 value for the +SA cell line.
# [4] = test system: MDA-MB-231 human breast cancer cells; assay: Wound-healing assay (cell migration); assay type: cell-based; conditions: Homo sapiens; for IC50: MDA-MB-231, wound-healing assay, dose response, read-out: IC50 antimigratory activity; for inhibition at 5 µM: MDA-MB-231, 24 h, wound-healing assay
# Protocol: The highly metastatic human breast cancer MDA-MB-231 cells were cultured in RPMI 1640 medium containing 10 mM HEPES, 4 mM L-glutamine, 10% fetal bovine serum, penicillin (100 IU/mL), and streptomycin (50 μg/mL), and grown in a 5% CO2 atmosphere at 37° C. Cells were plated onto sterile 24-well and allowed to recover for a confluent cell monolayer formed in each well (>95% confluence). Wounds were then inflicted to each cell monolayer using a sterile 200 μL pipette tip. Media were removed, cells monolayers were washed twice with PBS, and then fresh media containing test compounds were added to each well. Test compounds were prepared in DMSO at 5 μM concentration and added to the plates, each in triplicate using DMSO as negative control. The incubation was carried out for 24 h under serum-starved conditions, after which media was removed and cells were fixed and stained using a staining composition sold under the trade name Diff Quick (Dade Behring Diagnostics, Aguada, Puerto Rico). The stain comprised a fixative reagent containing 1.8 mg/L triarylmethane dye in methyl alcohol; a first solution of 1 g/L xanthene dye, buffer, and sodium azide (0.01%) as preservative; and a second solution of 1.25 g/L Thiazine dye mixture (0.625 g/L azure A and 0.625 g/L methylene blue) and buffer. The number of cells migrated on the scratched wound were counted under the microscope in three or more randomly selected fields (magnification: 400×). Final results are expressed as mean±SEM per 400× field. The wound-healing assay is a simple method for the study of directional cell migration in vitro.
# Compounds were tested for their ability to inhibit the migration of the highly metastatic MDA-MB-231 human breast cancer cells in the wound-healing assay using the procedure described above. Compounds 6, 10, 12, 13, 24, 26, 27, and 29 inhibited the migration of more than 50% of the human breast cancer cells MDA-MB-231 in the wound healing assay at 5 μM dose. […] The antimigratory activity of tocotrienols may be enhanced by a terminal aromatic functionality. The presence of electron withdrawing group, such as nitro in Compound 29, may eliminate the antiproliferative activity yet retain the antimigratory activity of the compound. While the electron donating groups, such as OH and OMe found in Compounds 23 and 26, respectively, retained both antiproliferative and antimigratory activities.
# Utilizing similar procedures follow-up testing was conducted on a variety of compounds using a range of compound concentrations. The results of follow-up antimigratory testing are shown in FIG. 35B and Table III below with IC50 values calculated using statistical software.
# [5] = MCF-10A, MCF10A cells, Table II, non-linear regression, read-out: MCF10A (IC50)
# [6] = MCF 10A non-tumorigenic cells, Table I, read-out: IC50 MCF 10A
Structure (SMILES),IC50 [1] [µM],IC50 [2] [µM],"IC50 [3, 5] [µM]","IC50 [3, 6] [µM]",Selectivity index [3],IC50 [4] [µM],inhibition at 5 µM [4] [%]
"CC(C)=CCC/C(C)=C/CC/C(C)=C/CC[C@]1(C)CCc2c3c(cc(C)c2O1)OCN(CCCCCCCCCCCCO)C3 [Compound 44, 12-((R)-6,8-dimethyl-8-((3E,7E)-4,8,12-trimethyltrideca-3,7,11-trienyl)-9,10-dihydrochromeno[5,6-e][1,3]oxazin-2(1H,3H,8H)-yl)dodecan-1-ol]",> 20,> 50,–,–,–,–,–
"CC(C)=CCC/C(C)=C/CC/C(C)=C/CC[C@]1(C)CCc2c3c(c(C)c(C)c2O1)OCN(CCCCCCCCCCCCO)C3 [Compound 43, 12-((R)-5,6,8-trimethyl-8-((3E,7E)-4,8,12-trimethyltrideca-3,7,11-trienyl)-9,10-dihydrochromeno[5,6-e][1,3]oxazin-2(1H,3H,8H)-yl)dodecan-1-ol]",> 20,> 50,–,–,–,–,–
"CC(C)=CCC/C(C)=C/CC/C(C)=C/CC[C@]1(C)CCc2c3c(c(C)c(C)c2O1)OCN(CCCCCCCCO)C3 [Compound 39, 8-((R)-5,6,8-trimethyl-8-((3E,7E)-4,8,12-trimethyltrideca-3,7,11-trienyl)-9,10-dihydrochromeno[5,6-e][1,3]oxazin-2(1H,3H,8H)-yl)octan-1-ol]",> 20,> 20,2,2,1.43,4.7,–
"CC(C)=CCC/C(C)=C/CC/C(C)=C/CC[C@]1(C)CCc2c3c(cc(C)c2O1)OCN(CCCCCO)C3 [Compound 18, 5-((R)-6,8-dimethyl-8-((3E,7E)-4,8,12-trimethyltrideca-3,7,11-trienyl)-9,10-dihydrochromeno[5,6-e][1,3]oxazin-2(1H,3H,8H)-yl)pentan-1-ol]",9.1,9,4.6,4.6,6.57,–,–
"CC(C)=CCC/C(C)=C/CC/C(C)=C/CC[C@]1(C)CCc2c3c(c(C)c(C)c2O1)OCN(CCCCCCO)C3 [Compound 37, 6-((R)-5,6,8-trimethyl-8-((3E,7E)-4,8,12-trimethyltrideca-3,7,11-trienyl)-9,10-dihydrochromeno[5,6-e][1,3]oxazin-2(1H,3H,8H)-yl)hexan-1-ol]",> 20,> 10,–,–,–,–,–
"CC(C)=CCC/C(C)=C/CC/C(C)=C/CC[C@]1(C)CCc2c3c(c(C)c(C)c2O1)OCN(CCCCCCCCCCO)C3 [Compound 41, 10-((R)-5,6,8-trimethyl-8-((3E,7E)-4,8,12-trimethyltrideca-3,7,11-trienyl)-9,10-dihydrochromeno[5,6-e][1,3]oxazin-2(1H,3H,8H)-yl)decan-1-ol]",19.4,15.7,–,–,–,–,–
"CC(C)=CCC/C(C)=C/CC/C(C)=C/CC[C@]1(C)CCc2c3c(cc(C)c2O1)OCN(CCCCCCCCCCO)C3 [Compound 42, 10-((R)-6,8-dimethyl-8-((3E,7E)-4,8,12-trimethyltrideca-3,7,11-trienyl)-9,10-dihydrochromeno[5,6-e][1,3]oxazin-2(1H,3H,8H)-yl)decan-1-ol]",4.6,12.4,–,–,–,7.2,–
"CC(C)=CCC/C(C)=C/CC/C(C)=C/CC[C@]1(C)CCc2c3c(c(C)c(C)c2O1)OCN(CCCCO)C3 [Compound 35, 4-((R)-5,6,8-trimethyl-8-((3E,7E)-4,8,12-trimethyltrideca-3,7,11-trienyl)-9,10-dihydrochromeno[5,6-e][1,3]oxazin-2(1H,3H,8H)-yl)butan-1-ol]",> 20,13.8,–,–,–,10.7,–
"CC(C)=CCC/C(C)=C/CC/C(C)=C/CC[C@]1(C)CCc2c3c(cc(C)c2O1)OCN(CCO)C3 [Compound 10, 2-((R)-6,8-dimethyl-8-((3E,7E)-4,8,12-trimethyltrideca-3,7,11-trienyl)-9,10-dihydrochromeno[5,6-e][1,3]oxazin-2(1H,3H,8H)-yl)ethanol]",6,> 5,–,3.1,–,1.3,> 50
"CC(C)=CCC/C(C)=C/CC/C(C)=C/CC[C@]1(C)CCc2c3c(cc(C)c2O1)OCN(CCc1ccc(O)cc1)C3 [Compound 27, 4-(2-((R)-6,8-dimethyl-8-((3E,7E)-4,8,12-trimethyltrideca-3,7,11-trienyl)-9,10-dihydrochromeno[5,6-e][1,3]oxazin-2(1H,3H,8H)-yl)ethyl)phenol]",18.2,> 5,1.9,1.9,2.09,2.4,> 50
"COc1ccc(CCN2COc3cc(C)c4c(c3C2)CC[C@@](C)(CC/C=C(\C)CC/C=C(\C)CCC=C(C)C)O4)cc1OC [Compound 24, (R)-2-(3,4-dimethoxyphenethyl)-6,8-dimethyl-8-((3E,7E)-4,8,12-trimethyltrideca-3,7,11-trienyl)-1,2,3,8,9,10-hexahydrochromeno[5,6-e][1,3]oxazine]",–,–,–,–,–,–,> 50
"CC(C)=CCC/C(C)=C/CC/C(C)=C/CC[C@]1(C)CCc2c3c(c(C)c(C)c2O1)OCN(CCCO)C3 [Compound 12, 3-((R)-5,6,8-trimethyl-8-((3E,7E)-4,8,12-trimethyltrideca-3,7,11-trienyl)-9,10-dihydrochromeno[5,6-e][1,3]oxazin-2(1H,3H,8H)-yl)propan-1-ol]",> 20,9.6,–,–,–,8.1,> 50
